In assay [1] the test system is IL-1β-induced NF-κB signaling in HEK-Blue IL-33/IL-1β cells. Nature of the assay: NF-κB QUANTI-Blue assay. The assay is classed as cell-based. The note with it: peptide 10^−6 M, 30 min pretreatment, IL-1β 100 ng/ml. Here is the method:
FIG. 3 is a graph showing the effects of peptides 1 and 2 on IL-1β-induced NF-κB signaling in HEK-Blue cells as quantified in the QUANTI-blue assay. After pre-incubation with peptide or vehicle, HEK-Blue cells were stimulated with IL-1β for 24 h, and secreted alkaline phosphatase activity was spectroscopically detected as a reporter product from the transcription of the NF-κB gene. Data shown represents the average of 2 experiments (each with n=4 per treatment group): ****p<0.0001 compared to group treated only with IL-1β.
HEK-Blue IL-33/IL-1β cells (InvivoGen) were respectively pretreated with peptides 1 and 2 (10^−6 M), or Kineret (1.0 mg/mL) for 30 min, followed by treatment with a constant concentration of […] (100 ng/ml), and incubation at 37° C. for 4 h. Levels of secreted alkaline phosphatase in cell culture supernatant were determined using the QUANTI-Blue assay, according to the manufacturer's instructions (InvivoGen). Alkaline phosphatase activity was assessed by measuring the optical density (OD) at 620-655 nm with an EnVision Multilabel micro plate reader (PerkinElmer, Waltham, MA). Data are representative of 3 experiments (each with n=4 per treatment group).

In assay [2] the test system is timed-pregnant CD-1 mice. Nature of the assay: LPS-induced preterm birth model in mice. It counts as in vivo, mouse. The note with it: 2 mg/kg/day subcutaneous, LPS 10 μg intraperitoneal on G16.5; delivery before G18.5; LPS alone ˜80%. Here is the method:
FIG. 6 is a graph showing the effects of peptides 1 and 2 on prevention of PTB. In brief, pregnant dams on day 16.5 of gestation (G16.5) were subcutaneously pretreated with peptides 1 and 2 (2 mg/kg/day subcutaneous injections) or vehicle, followed by LPS (10 μg intraperitoneal injection), and observed for delivery of pups. A dam was considered as delivering preterm if at least one pup was delivered before G18.5. n=4-5 dams per treatment group.
Timed-pregnant CD-1 mice at 16.5 days of gestation (G16.5) were anesthetized with 2% isoflurane and received an intraperitoneal injection of lipopolysaccharide (LPS, n=4 per group, a single dose of 10 ug) (Nadeau-Vallée et al., 2015; Kakinuma et al., 1997). A dosage of 2 mg/kg/day of peptides 1 and 2 or vehicle was respectively injected subcutaneously in the neck, every 12h until delivery. On G16.5, a dose of 1 mg/kg was injected 30 min before stimulation with LPS (to allow distribution of drugs to target tissues) and 1 mg/kg was injected 12h after stimulation (n=4 each treatment). Mice delivery was assessed every hour until term (G19-G19.5). A mouse was considered as delivering prematurely if the first pup was delivered earlier than G18.5. Data was analyzed using Prism 7 (GraphPad Software, San Diego, CA, USA) with one-way ANOVA and Dunnett's test for multiple comparisons. Outliers were detected using Grubb's test. Results were treated as significant when p was <0.05 and expressed as mean+SEM.
From the results of the in vitro screens, a subset of six (3R,4S)-β-substituted-Agl^3 peptides (e.g., 2c, 2d, 2f, 2l, 2n, 2q) were selected for examination in vivo in a CD-1 mouse model of preterm birth (PTB), and a Sprague Dawley rat model of oxygen-induced retinopathy (OIR). In the PTB model, timed-pregnant CD-1 dams were pre-treated with peptides 1 or 2, or PBS vehicle, and then injected with LPS on day 16.5 of gestation (G16.5). A bacterial cell wall component that contains PAMPs, LPS is known to reliably induce labor via pro-inflammatory pathways implicating IL-1 (Hirsch and Wang 2005). The CD-1 mice have a gestation of 19.2 days (Goupil et al. 2010). Dams that delivered at least one pup before G18.5 were considered to have given birth prematurely. In the absence of peptide, LPS alone induced premature labor in ˜80% of treated mice (FIG. 6). Peptide 1 and triazoles 2 l and 2q, all reduced the PTB rate to ˜20%.

The test system of assay [3] is Sprague Dawley rat pups. Kind of assay: Oxygen-induced retinopathy (OIR) model. Particulars: 2 mg/kg/day intraperitoneal twice daily, 80% oxygen P5 to P10; for extent of vaso-obliteration (percentage of total retinal area): vehicle ˜30%. It counts as in vivo. An excerpt: Experiments in the oxygen-induced retinopathy rodent model were preformed according to the method described previously (Geranurimi et al. 2019), and summarized below.
Animals. Two-day-old (P2) Sprague Dawley rat pups and their mothers were ordered from Charles River (Raleigh, SC, USA) and acclimatized for 3 days in standard conditions. All procedures and protocols involving the use of the rats were approved by the Animal Care Committee of the research center of Hopital Maisonneuve-Rosemont and are in accordance with the Statement for the Use of Animals in Ophthalmic and Vision Research approved by the Association for Research in Vision and Ophthalmology, and guidelines established by the Canadian Council on Animal Care.
Oxygen-Induced Retinopathy in Sprague Dawley Rats. The 80% oxygen model of retinopathy was conducted as previously described (Geranurimi et al. 2019). Briefly, litters of P5 pups and their mothers were kept in a controlled 80% oxygen environment until P10. The pups were respectively injected intraperitoneally twice daily with PBS vehicle (20 μL per injection), peptide 1 or derivatives 2 (titrated to a daily dose of 2 mg/kg/day). Control litters were kept under normal air atmosphere and standard conditions. On P10, pups were euthanized by decapitation under 2% isoflurane anesthesia. Eyes were enucleated and fixed in 4% paraformaldehyde, then stored at 4° C. in phosphate-buffered saline (PBS) until further processing.
Retinal Flatmount and Immunohistochemistry. The fixed eyes were dissected, and the obtained retinas were incubated with antibodies and mounted onto slides as previously described in (Geranurimi et al. 2019). Briefly, the cornea and lens were removed from the eyes, and the retina gently removed from the underlying sclera-choroid-retinal pigmented epithelium (RPE) complex. Retinas were treated for 1h with blocking solution [1% bovine serum albumin (BSA), 1% normal goat serum, 0.1% Triton X-100 and 0.05% Tween-20 in PBS], and then incubated overnight with lectin and Iba-1 primary antibody, followed by Alexa-594-conjugated secondary antibody for 2 h. Retinas were then mounted onto microscope slides under coverslips with anti-fade mounting medium.
Microscopy. Retinal flatmounts were imaged using the Zeiss Axiolmager Z2 and the MosaiX feature of the AxioVision software as previously described (Geranurimi et al. 2019). Representative images after Iba-1 staining were taken using a laser scanning confocal microscope (Olympus IX81 with Fluoview FV1000 Scanhead) using the Fluoview Software at 30× magnification.
Quantification and Data Analysis. The FIJI software was used to quantify the area of vaso-obliteration in each retina, expressed as a percentage of the area of the whole retina. The number of Iba-1-positive cells was counted using the cell counter plug-in in the FIJI software, and the average of cell counts in 4 fields per retina was calculated. Data was analyzed using Prism 7 with one-way ANOVA and the Dunnett's test for multiple comparisons. Results were treated as significant when p was less than 0.05 and expressed as mean+SEM.

The subject of assay [4] is human thymocyte. Particulars: in vitro (Jamieson et al. 2009); cited from earlier work.
For assay [5] the following is noted: Quiniou et al. 2008; cited from earlier work.
The test system of assay [6] is IL-1β-induced phosphorylation of p38. Kind of assay: IL-1β-induced p38 phosphorylation, Western blot, RAW Blue cells. It counts as cell-based. Particulars: peptide 10^−6 M 30 min, then IL-1β 15 min. The protocol: (§1) FIGS. 5A-C are graphs showing the effects of peptides 1 and 2 on IL-1β-induced phosphorylation of p38 (FIG. 5A), JNK (FIG. 5B), and ROCK2 (FIG. 5C). Graphical representations of band density analysis of Western Blots are shown as fold activation compared to control. RAW Blue cells were pretreated with peptides 1 and 2 (10^−6 M), Kineret (1 mg/mL), or vehicle for 30 min and then stimulated with IL-1β for 15 min. Results shown are the average of 3 independent experiments: *p<0.05, ** p<0.01, ***p<0.001 compared to group treated only with IL-1β. Treatment groups that are not labeled with asterisks are statistically non-significant compared to group treated only with IL-1β.
For orientation: In western blotting, separated proteins are transferred to a membrane and probed.

Assay [7] relates to IL-1β-induced phosphorylation of JNK. Kind of assay: IL-1β-induced JNK phosphorylation, Western blot, RAW Blue cells. The assay is classed as cell-based. Particulars: peptide 10^−6 M 30 min, then IL-1β 15 min. The protocol:
as §1

Assay [8] relates to IL-1β-induced phosphorylation of ROCK2. Kind of assay: IL-1β-induced ROCK2 phosphorylation, Western blot, RAW Blue cells. It counts as cell-based. The note with it: peptide 10^−6 M 30 min, then IL-1β 15 min. The protocol: as §1

These results are taken from patent publication US20240247029A1, “INTERLEUKIN-1 RECEPTOR MODULATORS AND USES THEREOF” (VALORISATION HSJ, LIMITED PARTNERSHIP, priority 2020, published 2024).

As to “H-D-Arg-D-Tyr-D-Thr-D-Val-D-Glu-D-Leu-D-Ala-NH2 [compound 1, reference compound]”, the “effect on IL-1β-induced NF-κB signaling (secreted alkaline phosphatase)” value in assay [1] was “no effect”. The substance also returned a PTB rate in assay [2] of about 20%. In assay [3], the “retinal microglial morphology/activation (Iba-1 staining)” value is “ramified and branched microglia”; the “extent of vaso-obliteration (percentage of total retinal area)” value is about 20%. For the same substance, the “IL-1β-induced human thymocyte cell proliferation” value in assay [4] is reported as “blocked”. Further, the “in vivo effects in models of hyperthermia and inflammatory bowel disease” value in assay [5] is “robust in vivo effects”.

With “[(3R,4S)-4-(4′-Phenyltriazolyl)Agl^3]-1 [2l]”, the “IL-1β-induced p38 phosphorylation” value in assay [6] is listed as “inhibiting”. Moreover, the “IL-1β-induced activation (phosphorylation) of JNK” value in assay [7] is listed as “inhibited”. Further, in assay [8], the “IL-1β-induced ROCK2 phosphorylation” value is listed as “inhibitory activity”. This substance also returned a PTB rate in assay [2] of about 20%. In addition, in assay [3], the “protective effect against vaso-obliteration” value is given as “tendencies to have a stronger protective effect than peptide 1”; the “retinal microglial morphology/activation (Iba-1 staining)” value was “ramified and branched microglia”; the “extent of vaso-obliteration (percentage of total retinal area)” value was about 20%.
